Measurements taken from publication PMC4887995, “Small molecule dual-inhibitors of TRPV4 and TRPA1 for attenuation of inflammation and pain” (Scientific Reports, 2016).
Entries after “also recorded” stand apart in the source; their conditions may differ.

Tests used:
[1] = tested on: formalin-evoked trigeminal irritant pain (TRPA1 contribution); experiment: Trigeminal formalin irritant pain model, Trpv4-/- mice; type: in vivo, mouse; details: 10 mg/kg i.p.; for late-phase pain behavior: vs vehicle
Protocol: Figure 7 16-8 and 16-19 effectively attenuate formalin-evoked trigeminal irritant pain. (A) Time-course of nocifensive behavior in WT mice following whisker-pad injection of 4% formalin. The mice were pre-injected (i.p., 10 mg/kg; 15 min before formalin) with GSK205, 16-8 or 16-19. Note effective reduction of nocifensive behavior in the late “neural” phase by compounds 16-8, 16-19, not by GSK205. (B) Cumulative response binned into 3 phases: acute phase (0–5 min), interphase (5–15 min), and late “neural” phase (15–45 min). […] (C) As in (A), but also including Trpv4^−/− mice. Compounds were applied i.p. 15 min before formalin challenge, at 10 mg/kg except established TRPA1 blocker, A967079 (25 mg/kg). Previously-established attenuated nocifensive behavior in early and late phase in Trpv4^−/− mice was recapped, which was reduced further by TRPA1 blocker, A967079. (D) As in (B), plus inclusion of Trpv4^−/− mice. Robust effects of TRPA1-blocker, A967079, were mimicked equi-potently by 16-8 and 16-19 for early phase, and by 16-8 for late phase, partially by 16-19 for late phase. (A,C) show averaged behavioral metrics per time-point, bars in (B,D) represent mean ± SEM; for (D) ^*P < 0.05; ^#P < 0.005, one-way ANOVA; for all panels n = 5–8 mice/group. […] We observed significant residual irritant-pain behavior in all phases of the formalin model in Trpv4^−/− mice, consistent with our previous report[13] (Fig. 7C,D). […] A reference TRPA1-inhibitory compound, A967079, was used at 25 mg/kg body weight as a positive control to inhibit TRPA1, based on a previous report. Reduction of pain behavior in Trpv4^−/− mice was striking, more than 50% in the late neural phase. […] We conclude that compound 16-8 also functions as a potent TRPA1-inhibitor in an in-vivo irritant pain model specifically designed to assess the contribution of TRPA1 to trigeminal irritant pain, and at least as potent as an established reference TRPA1-antagonistic compound. Implementation of this model was conducted as described previously. Video-taped nocifensive behavior was assessed by investigators blinded to genotype and treatment.

[2] = tested on: formalin-evoked trigeminal irritant pain; experiment: Trigeminal formalin irritant pain model, WT mice; type: in vivo, mouse; details: 10 mg/kg i.p.; for pain behavior, delayed (late neural) phase: 15 min before 4% formalin, 15–45 min
Protocol: Figure 7 16-8 and 16-19 effectively attenuate formalin-evoked trigeminal irritant pain. (A) Time-course of nocifensive behavior in WT mice following whisker-pad injection of 4% formalin. The mice were pre-injected (i.p., 10 mg/kg; 15 min before formalin) with GSK205, 16-8 or 16-19. Note effective reduction of nocifensive behavior in the late “neural” phase by compounds 16-8, 16-19, not by GSK205. (B) Cumulative response binned into 3 phases: acute phase (0–5 min), interphase (5–15 min), and late “neural” phase (15–45 min). […] (C) As in (A), but also including Trpv4^−/− mice. Compounds were applied i.p. 15 min before formalin challenge, at 10 mg/kg except established TRPA1 blocker, A967079 (25 mg/kg). Previously-established attenuated nocifensive behavior in early and late phase in Trpv4^−/− mice was recapped, which was reduced further by TRPA1 blocker, A967079. (D) As in (B), plus inclusion of Trpv4^−/− mice. Robust effects of TRPA1-blocker, A967079, were mimicked equi-potently by 16-8 and 16-19 for early phase, and by 16-8 for late phase, partially by 16-19 for late phase. (A,C) show averaged behavioral metrics per time-point, bars in (B,D) represent mean ± SEM; for (D) ^*P < 0.05; ^#P < 0.005, one-way ANOVA; for all panels n = 5–8 mice/group. Implementation of this model was conducted as described previously. Video-taped nocifensive behavior was assessed by investigators blinded to genotype and treatment.

N2a cells = experiment: Cell viability (resazurin) in N2a cells; type: cell-based
Protocol: Figure 6 Cellular toxicity studies of compounds 16-8 and 16-19. N2a cells were subjected to increasing concentrations of compounds 16-8 and 16-19, resulting cell viability was analyzed for the next 48 h. (A) Time course of cell viability in the presence of various concentrations of 16-8. […] Representative result of 2 independent experiments.
N2a cells were cultured in 96 well plates for 24–48 h. Cell viability studies relied on metabolic capability monitored with the indicator dye resazurin. Its reduction to resorufin (indicated by color change dark blue to pink) was monitored over time. Changes in absorbance at λ = 570 nm were recorded using a microplate reader (Molecular Devices). […] Eight replicate cultures per experimental point were studied.

[3] = Preliminary in-vivo cardiac, renal and hepatic toxicity; set-up: species or system mouse; details: 10 mg/kg i.p., vs vehicle; for heart rate (EKG): over 1 h at the 6 h time-point
Protocol: Mice were treated i.p. with compounds 16-8 and 16-19 (10 mg/kg). Hepatic and renal integrity were analyzed by alanine amino-transferase- and creatinine assays (Sigma), both relying on measurement of absorbance at λ = 570 nm in 96-well micro-titerplates. 8 technical replicates per animal were performed.
For heart rate assessment in mice treated with 16-8 and 16-19, animals were fitted with two electrodes, one to the ear, via clip, one to the rib-cage, using firm adhesive. Heart rate was monitored and analyzed using axoscope and clampfit 9.2 software (Molecular Devices)

| Compound | immediate-phase pain behavior [1] | late-phase pain behavior [1] | diminishing of pain behavior, delayed phase [2] [%] | pain behavior, delayed (late neural) phase [2] | cellular toxicity vs inhibitory potency against TRPV4/TRPA1, factor (N2a cells) | cell viability (N2a cells; increasing concentrations, followed for 48 h) | heart rate (EKG) [3] | serum alanine-amino-transferase (ALT) [3] | serum creatinin [3] |
| --- | --- | --- | --- | --- | --- | --- | --- | --- | --- |
| CN(CCc1ccc(Nc2nc(-c3ccccc3)cs2)cc1)Cc1ccccc1 [16-8] | virtually eliminated | strikingly reduced | > 50 | significant attenuation; also recorded: significant reduction | 50–100 | clear reduction at 40 and 80 μM | no and did not detect differences and changes | not significantly elevated | not significantly elevated |
| CCN(CCc1ccc(Nc2nc(-c3ccccc3)cs2)cc1)Cc1ccccc1 [16-19] | virtually eliminated | still significantly reduced | – | robust effect; also recorded: significant reduction | 50–100 | – | no and did not detect differences and changes | not significantly elevated | not significantly elevated |
